Reference: PMC8534003, “The Chemokine-Based Peptide, CXCL9(74-103), Inhibits Angiogenesis by Blocking Heparan Sulfate Proteoglycan-Mediated Signaling of Multiple Endothelial Growth Factors” (Cancers, 2021)

System: FGF-2-induced angiogenesis, C57BL/6 mice
Assay: In vivo angiogenesis Matrigel plug assay
Parameters: species or system mouse
Settings: data not shown
Procedure: Six-to-eight-week-old female C57BL/6 mice were anesthetized with a mixture of 2.5 mg/mL xylazine (V.M.D, Inovet, Arendonk, Belgium) and 37.5 mg/mL ketamine (Dechra, Northwich, UK) in PBS by i.p. injection. A vertical dorsal incision was made and an ALZET osmotic pump (model 1007D, DURECT Corporation, Cupertine, CA, USA) filled with 400 µg/100 µL CXCL9(74-103) or 100 µL PBS was subcutaneously (s.c.) implanted. The incision was closed with a surgical suture. Growth factor-reduced Matrigel (Corning Matrigel Growth Factor (GFR) Basement Membrane Matrix, Phenol Red-Free, LDEV-Free; Corning Life Sciences, Amsterdam, The Netherlands) was s.c. injected in the dorsal flank forming a firm plug (600 µL/plug). The Matrigel was either injected as such (control plugs) or supplemented with 300 µg CXCL9(74-103) and/or 180 ng FGF-2. Seven days later, the mice were sacrificed. Thirty minutes before sacrifice, the mice were i.v. injected with 200 µL (25 mg/kg) FITC-labeled 2000 kDa dextran (Sigma-Aldrich) to quantify vessel formation in the Matrigel plugs. Blood was collected through cardiac puncture into heparinized tubes containing 20 µL heparin (5.000 IE/mL, Leo Pharma, Ballerup, Denmark). The blood was centrifuged at 200 g and 4 °C for 10 min, whereafter the supernatant was centrifuged at 3000 g and 4 °C for 10 min. The collected plasma was stored away from light at 4 °C until analysis. The Matrigel plugs were removed and enzymatically and mechanically digested in 1.2 mL dispase (Corning Life Sciences) using an incubation at 37 °C for 1.5 h and the gentleMACS™ Dissociator (Miltenyi Biotec, Bergisch Gladbach, Germany). The digested Matrigel plugs were filtered through a 70 µm cell strainer, washed with 1.5 mL FACS buffer [2% (v/v) FCS + 2 mM EDTA in PBS] and centrifuged at 300 g and 4 °C for 7 min. The supernatant (SN) was centrifuged again at 300 g and 4 °C for 7 min and the SN was retained away from light at 4 °C until analysis. The pellet was resuspended in 1 mL FACS buffer, the cells were counted and used for flow cytometry. The antibodies used to identify endothelial cells were anti-mouse CD45-APC (clone 30-F11, eBioscience, Thermo Fisher Scientific), anti-mouse CD146-PE (clone ME-9F1) and anti-mouse Pan-endothelial Cell Antigen-BV711 (clone MECA-32) antibodies (both BD Biosciences). Mice experiments were approved by the Ethical Committee of KU Leuven (project number P199/2018).

KKVLKVRKSQRSRQKKTT [CXCL9(86-103)]
FGF-2-induced angiogenesis in the Matrigel plug assay: no anti-angiogenic activity
